According to patent publication US11261152B2, “Inhibitors of the N-terminal domain of the androgen receptor” (The Regents of the University of California, priority 2017, dated 2022):

Tests used:
[1] = test system: AR transcriptional activity (MMTV reporter); assay: MMTV reporter assay; assay type: cell-based; conditions: Table 3 grade HIGH/MED/LOW, grades not defined
[2] = test system: androgen response element (ARE); assay: ARE reporter assay (tandem copies of the androgen response element); assay type: cell-based; conditions: for ARE: Table 3 grade HIGH/MED/LOW, grades not defined
Procedure: FIG. 11A. Effects of JN series compounds in reporter assays for androgen response element. Experiments were performed in triplicate and results are means+/−s.d.

[3] = test system: glucocorticoid response element (GRE) / glucocorticoid receptor; assay: GRE reporter assay; assay type: cell-based; conditions: Table 3 grade HIGH/MED/LOW, grades not defined
Procedure: FIG. 11B. Effects of JN series compounds in reporter assays for glucocorticoid response element. Experiments were performed in triplicate and results are means+/−s.d.

[4] = target: T1, AR transactivation domain (TAD) (Homo sapiens, UniProt P10275); assay: AR-TAD fused to GAL4 DNA-binding domain reporter assay; assay type: cell-based; conditions: Table 3 grade HIGH/MED/LOW, grades not defined
T1 construct: expressed in transfected cells
T1 sequence (P10275 1-559 limits assumed): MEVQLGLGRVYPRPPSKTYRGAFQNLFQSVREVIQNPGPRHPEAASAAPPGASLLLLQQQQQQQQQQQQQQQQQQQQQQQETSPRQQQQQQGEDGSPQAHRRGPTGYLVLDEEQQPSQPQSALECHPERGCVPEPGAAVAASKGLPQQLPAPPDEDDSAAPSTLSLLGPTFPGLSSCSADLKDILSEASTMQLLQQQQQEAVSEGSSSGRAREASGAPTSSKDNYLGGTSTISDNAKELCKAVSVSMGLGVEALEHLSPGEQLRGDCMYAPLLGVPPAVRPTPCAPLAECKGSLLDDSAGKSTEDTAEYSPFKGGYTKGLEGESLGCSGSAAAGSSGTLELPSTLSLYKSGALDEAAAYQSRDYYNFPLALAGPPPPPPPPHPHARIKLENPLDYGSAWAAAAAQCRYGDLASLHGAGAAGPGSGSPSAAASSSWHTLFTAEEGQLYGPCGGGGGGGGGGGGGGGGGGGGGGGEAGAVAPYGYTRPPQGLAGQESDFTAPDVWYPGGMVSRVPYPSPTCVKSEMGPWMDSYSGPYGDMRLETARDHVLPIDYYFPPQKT
Excerpt: (§1) The inhibitory activity of JN018 was further evaluated in experiments in which the AR transactivation domain (TAD) or the c-Jun or CREB TAD was fused to the heterologous GAL4 DNA-binding domain and thereby drive reporter gene expression governed by the GAL4 response element (FIG. 1).

c-Jun TAD = assay: JUN-TAD fused to GAL4 DNA-binding domain reporter assay; assay type: cell-based; conditions: Table 3 grade HIGH/MED/LOW, grades not defined
Excerpt: as §1

CREB TAD = assay: CREB-TAD fused to GAL4 DNA-binding domain reporter assay; assay type: cell-based; conditions: Table 3 grade HIGH/MED/LOW, grades not defined
Excerpt: as §1

[5] = test system: AR-null PCa cells (DU145, PC3); assay: MTT / CellTiter GLO cell viability, AR-null prostate cancer cells; conditions: Table 3 grade HIGH/MED/LOW, grades not defined
Procedure: (§2) The results are means of quadruplicate expts±s.d. Top panel: CellTiter GLO luminescent bioassay (arbitrary units on vertical axis). Bottom panel: classical MTT assay ([blue/yellow]=[viable/non-viable]).
(§3) Experiments were performed in quadruplicate; results are means+/−s.d.
AR null PC3 cells were exposed to the indicated compounds for 6 days; cell viability was measured by MTT assay. Results were normalized to that of vehicle control. Experiments were performed in quadruplicate; results are means+/−s.d.
For each compound and concentration in the figure, the bars represent relative cell viability of 22Rv1, LAPC4, and DU145, from left to right.
For each compound and concentration in the figure, the bars represent relative cell viability of CWR22 and PC3, from left to right.

[6] = test system: AR positive PCa cells (LNCaP, LNCaP-AR, CWR22, 22Rv1, LAPC4); assay: MTT / CellTiter GLO cell viability, AR positive prostate cancer cells; conditions: for MTT AR-Pos: Table 3 grade HIGH/MED/LOW, grades not defined
Procedure: as §2, §3
Results were normalized to that of vehicle control. Experiments were performed in quadruplicate; results are means+/−s.d.
Next, the effects of the compounds on growth of prostate cancer cell lines in vitro were evaluated.

Row | Compound | MMTV [1] | ARE [2] | GRE [3] | AR-TAD [4] | JUN-TAD (c-Jun TAD) | CREB-TAD (CREB TAD) | MTT AR-Neg [5] | MTT AR-Pos [6] | reporter activity driven by the ARE ([2]; result in words) | growth inhibitory / suppressive effects as compared to JN018 ([6]; result in words)
1 | CN(C/C(=C\c1ccc(Cl)cc1)C(=O)c1ccc(Cl)cc1)Cc1ccccc1 [JN050] | HIGH | HIGH | HIGH | HIGH | LOW | MED | MED | HIGH | – | –
2 | CN(C/C(=C\c1ccc(Br)cc1)C(=O)c1ccccc1)Cc1ccccc1 [JN022] | HIGH | LOW | – | HIGH | HIGH | LOW | HIGH | HIGH | – | –
3 | CN(C/C(=C\c1ccc(C(F)(F)F)cc1)C(=O)c1ccccc1)Cc1ccccc1 [JN044] | MED | HIGH | HIGH | HIGH | LOW | MED | MED | HIGH | – | –
4 | CN(C/C(=C\c1ccc(Cl)c(Cl)c1)C(=O)c1ccccc1)Cc1ccccc1 [JN031] | LOW | LOW | – | – | – | – | – | – | – | –
5 | Cc1ccc(/C=C(\CN(C)Cc2ccccc2)C(=O)c2ccccc2)cc1 [JN043] | HIGH | HIGH | HIGH | HIGH | LOW | MED | MED | HIGH | – | –
6 | C/C(=C\c1ccc(Cl)cc1)C(=O)c1ccccc1 [JN026, (E)-3-(4-Chlorophenyl)-2-methyl-1-phenylprop-2-en-1-one] | LOW | LOW | – | – | – | – | – | – | – | –
7 | C=C(CN(C)Cc1ccccc1)C(=O)/C(=C/c1ccc(Cl)c(Cl)c1)c1ccccc1.Cl [JN057] | MED | – | HIGH | – | – | – | MED | MED | – | –
8 | C=C(CN(C)Cc1ccccc1)C(=O)/C(=C/c1ccc(Cl)cc1F)c1ccccc1.Cl [JN083] | HIGH | LOW | – | – | – | – | MED | MED | – | –
9 | CN(C)C/C(=C\c1ccc(Cl)cc1)C(=O)c1ccccc1 [JN024] | HIGH | HIGH | – | HIGH | HIGH | HIGH | MED | HIGH | – | –
10 | O=C(/C(=C/c1ccc(Cl)cc1)CN1CCCC1)c1ccccc1 [JN028] | HIGH | HIGH | – | – | – | – | – | – | – | –
11 | CN(C/C(=C\c1ccc(Cl)cc1)C(=O)c1ccccc1)Cc1ccccc1 [JN017, (E)-2-((Benzyl(methyl)amino)methyl)-3-(4-chlorophenyl)-1-phenylprop-2-en-1-one] | LOW | LOW | – | HIGH | LOW | LOW | MED | HIGH | – | –
12 | O=C(CC1CO1)/C(=C/c1ccc(Cl)cc1)c1ccccc1 (centres unmarked) [JN097, (E)-4-(4-Chlorophenyl)-1-(oxiran-2-yl)-3-phenylbut-3-en-2-one] | – | – | – | – | – | – | – | – | inhibited reporter activity | enhanced growth inhibitory effects
13 | C=C(CN(C)Cc1ccccc1)C(=O)/C(=C\c1ccc(F)cc1)c1ccccc1.Cl [JN055] | MED | MED | HIGH | – | – | – | – | – | – | –
14 | O=C(/C(=C/c1ccc(Cl)cc1)CN1CCOCC1)c1ccccc1 [JN029] | HIGH | HIGH | – | – | – | – | – | – | – | –
15 | C=C(CN(C)Cc1ccccc1)C(=O)/C(=C/c1cccc(Cl)c1)c1ccccc1.Cl [JN060] | HIGH | HIGH | HIGH | – | – | – | HIGH | HIGH | – | –
16 | O=C(/C=C/c1ccc(F)cc1)C(=Cc1ccc(F)cc1)c1ccccc1 [JN051] | HIGH | HIGH | HIGH | – | – | – | HIGH | HIGH | – | –
17 | CN(C/C(=C\c1cccc(Cl)c1)C(=O)c1ccccc1)Cc1ccccc1 [JN048] | HIGH | HIGH | LOW | HIGH | LOW | LOW | LOW | HIGH | – | –
18 | C=C(CN(C)Cc1ccccc1)C(=O)/C(=C\c1ccc(C(F)(F)F)cc1)c1ccccc1.Cl [JN065] | HIGH | – | – | – | – | – | LOW | MED | – | –
19 | C=C(CN(C)Cc1ccccc1)C(=O)/C(=C/c1ccc(Cl)c(F)c1)c1ccccc1.Cl [JN082] | LOW | LOW | – | – | – | – | LOW | LOW | – | –
20 | C=C(CN1CCCCC1)C(=O)/C(=C/c1ccc(Cl)cc1)c1ccccc1.Cl [JN077] | HIGH | – | – | – | – | – | LOW | LOW | – | –
21 | C=C(CN(C)Cc1ccccc1)C(=O)/C(=C/c1ccc(Cl)cc1)c1ccc(N=[N+]=[N-])cc1.Cl [JN080] | HIGH | – | – | – | – | – | LOW | LOW | – | –
22 | C=C(CN(C)Cc1ccccc1)C(=O)/C(=C/c1ccc(Cl)cc1)c1ccccc1Cl.Cl [JN076] | HIGH | – | – | – | – | – | MED | HIGH | – | –
23 | C=C(CN(C)Cc1ccccc1)C(=O)/C(=C/c1ccc(Cl)cc1)c1ccc(Cl)cc1.Cl [JN074] | HIGH | – | – | – | – | – | HIGH | HIGH | – | –
24 | CN(C/C(=C\c1ccc(F)cc1)C(=O)c1ccccc1)Cc1ccccc1 [JN030] | MED | MED | – | – | – | – | – | – | – | –
25 | C=C(CN(C)Cc1ccccc1)C(=O)/C(=C/c1ccc(Br)cc1)c1ccccc1.Cl [JN021] | LOW | – | – | – | – | – | MED | LOW | – | –
26 | C=C(C)C(=O)/C(=C\c1ccc(Cl)cc1)c1ccccc1 [JN025] | HIGH | HIGH | – | – | – | – | MED | LOW | – | –
27 | C=CC(O)/C(=C\c1ccc(Cl)cc1)c1ccccc1 (centres unmarked) [JN003, (Z)-1-(4-Chlorophenyl)-2-phenylpenta-1,4-dien-3-ol] | HIGH | – | LOW | HIGH | LOW | LOW | LOW | LOW | – | –
